{
  "source": "patent US10292976B2",
  "about": "“Anti-malarial agent” (RIKEN, priority 2014, dated 2019)",
  "key": {"[1]": {"tested_on": "Plasmodium falciparum: 3D7 strain", "experiment": "Antimalarial activity by LDH assay, 3D7 strain", "assay_type": "cell-based", "details": "for IC50: Plasmodium falciparum", "method": "Compounds that chelate metal ions in various modes (L1 to L25 in FIG. 1) were selected, and their antimalarial activities were evaluated by LDH assay. Since infection with malaria causes an increase in the LDH activity, the evaluation can be made based on the criteria that the lower the detected LDH activity, the higher the antimalarial activity.\n(§1) The LDH assay was carried out according to the following procedure. That is, 0.5 μL of a solution of each compound in DMSO was added to 100 μL of a culture liquid of erythrocytes (88% RPMI solution; 2% erythrocytes, provided by the Japanese Red Cross Society; and 10% human serum, provided by the Japanese Red Cross Society) infected with falciparum malaria parasites (Plasmodium falciparum: 3D7 strain) (infection rate of erythrocytes, 0.3%). The resulting culture liquid was subjected to culture in a 96-well plate under an atmosphere of 5% CO2, 5% O2, and 90% N2 at 37° C. for three days. Subsequently, the culture liquid was cooled at −80° C. for three hours, and then returned to room temperature. After addition of 150 μL of an LDH enzyme reaction liquid (0.15 mg/mL diaphorase, 37.5 μL/mL of 50% sodium lactate, 0.17 mg/mL NBT, 0.11 mg/mL APAD, 0.16 mL/mL of 1 M Tris-HCl (pH 8), and 8.3 μL/mL of Tween 20), the absorbance at 620 nm was measured.\nBy the same procedure as in Experiment 1, erythrocytes infected with malaria were treated with L6 (about 40 nM) together with iron ion (about 50 μM), copper ion (about 1 μM), or zinc ion (about 10 μM), and the antimalarial activity was evaluated by LDH assay.\n(§2) According to the same procedure as in Experiment 1, the antimalarial activities of metal complexes (M-L6) synthesized by mixing various kinds of metal ions (MSO4: M=Zn, Fe, Cu, Co, Ni, or Mn) with L6 at a molar ratio of 1:1 were evaluated by LDH assay."}, "[2]": {"tested_on": "drug-resistant malaria parasite K1 strain", "experiment": "Antimalarial activity by LDH assay, K1 strain", "assay_type": "cell-based, Plasmodium falciparum", "details": "Plasmodium falciparum", "method": "as §1, §2\nAccording to the same procedure as in Experiment 1, the antimalarial activities of L18 and di-2-pyridylketone 4,4-dimethyl-3-thiosemicarbazone (Sigma) against the malaria parasite 3D7 strain and the drug-resistant malaria parasite K1 strain were evaluated by LDH assay.\nAccording to the same procedure as in Experiment 1, the antimalarial activities of 4′-(4-Pyridyl)-2,2′:6′,2″-terpyridine (Tokyo Chemical Industry) against the malaria parasite 3D7 strain and the drug-resistant malaria parasite K1 strain were evaluated by LDH assay."}, "[3]": {"tested_on": "Dd2 strain (drug-resistant malaria parasites)", "experiment": "Antimalarial activity by LDH assay, Dd2 strain", "assay_type": "cell-based, Plasmodium falciparum", "details": "Plasmodium falciparum"}, "[4]": {"tested_on": "chloroquine-resistant strain", "experiment": "Antimalarial activity against a chloroquine-resistant strain", "assay_type": "cell-based", "details": "result in words"}, "[5]": {"experiment": "Cytotoxicity by WST-8 assay, HEK293T", "assay_type": "cell-based", "details": "human, HEK293T cells", "method": "(§3) After treating various kinds of cells (HEK293T: human embryonic kidney cells; HeLa: human cervical cancer cells; NIH3T3: mouse fibroblast cells; tsNRK: rat kidney cells; and 3Y1: rat fibroblasts) with a metal chelator for 48 hours, the cytotoxicities of the cells were evaluated by WST-8 assay."}, "[6]": {"experiment": "Cytotoxicity by WST-8 assay, HeLa", "assay_type": "cell-based, human", "details": "human, HeLa cells", "method": "as §3\n(§4) Subsequently, the following cell types: HL60 (human promyelocytic leukemia cells), HeLa (human cervical cancer cells), C3H10T1/2 (murine multipotential mesenchymal cells), and HEK293 (human embryonic kidney 293 cells); were treated with metal complexes M-L6 (M=Zn, Fe, Cu, Co, Ni, and Mn) for 48 hours, and then subjected to WST-8 assay to perform evaluation of the cytotoxicity of each kind of metal complex."}, "[7]": {"experiment": "Cytotoxicity by WST-8 assay, NIH3T3", "assay_type": "cell-based", "details": "mouse, NIH3T3 cells, NIH3T3, 48 hours", "method": "as §3"}, "[8]": {"experiment": "Cytotoxicity by WST-8 assay, tsNRK", "assay_type": "cell-based", "details": "rat, tsNRK cells", "method": "as §3"}, "[9]": {"experiment": "Cytotoxicity by WST-8 assay, 3Y1", "assay_type": "cell-based", "details": "rat, 3Y1 cells, 3Y1, 48 hours", "method": "as §3"}, "[10]": {"experiment": "Cytotoxicity by WST-8 assay, HL60", "assay_type": "cell-based, human", "details": "human, HL60 cells, Table 3, 48 hours", "method": "as §4"}, "[11]": {"experiment": "Cytotoxicity by WST-8 assay, C3H10T1/2", "assay_type": "cell-based, murine", "details": "mouse, C3H10T1/2 cells, Table 3, 48 hours", "method": "as §4"}, "[12]": {"experiment": "Cytotoxicity by WST-8 assay, HEK293", "assay_type": "cell-based, human", "details": "human, HEK293 cells, Table 3, 48 hours", "method": "as §4"}, "[13]": {"tested_on": "human cells (HEK293T and HeLa)", "experiment": "Cytotoxicity by WST-8 assay, summary for human cells", "assay_type": "cell-based", "details": "48 hours, read-out: concentration at which toxicity is exerted (IC50 value)", "method": "as §3"}, "[14]": {"tested_on": "mouse malaria parasites (Plasmodium berghei ANKA strain)", "experiment": "Effect to suppress malaria infection in malaria-infected mice", "assay_type": "in vivo", "details": "Balb/c mice, 20 mg/kg intraperitoneal injection, Day 2 to Day 6 after infection", "method": "(§5) To mice (7 weeks old, Balb/c, male), erythrocytes infected with mouse malaria parasites (Plasmodium berghei ANKA strain) (total number of erythrocytes per mouse, about 10^7; rate of malaria-infected erythrocytes, 0.3%) were intraperitoneally injected. L6 was administered (20 mg/kg, intraperitoneal injection) to each of the thus obtained malaria-infected mice, and the rate of malaria-infected erythrocytes was measured. As a result, on Day 2 to Day 6 after the infection, the infection rate tended to increase in the negative control to which only DMSO was administered. […] The effect of L6 to reduce the infection rate was almost equivalent to the effect of an existing drug, chloroquine (CQ)."}, "[15]": {"tested_on": "mouse malaria parasites (Plasmodium berghei ANKA strain)", "experiment": "Life-prolonging effect after infection with malaria, intraperitoneal", "assay_type": "in vivo", "details": "malaria-infected mice, 20 mg/kg intraperitoneal injection"}, "[16]": {"tested_on": "mouse malaria parasites (Plasmodium berghei ANKA strain)", "experiment": "Life-prolonging effect in malaria-infected mice, oral administration", "assay_type": "in vivo", "details": "oral 200 mg/kg on Day 1, Day 3, and Day 6", "method": "as §5\nTo malaria-infected mice obtained by the same procedure as in Experiment 4, an aqueous solution of L6 or the zinc complex Zn-L6 was orally administered (at a dose of 200 mg/kg on Day 1, Day 3, and Day 6; N=6), and changes in the number of surviving individuals were investigated. […] That is, it is thought that, by formation of metal complex with zinc ion, L6 can remarkably suppress the toxicity in vivo while sufficiently maintaining the antimalarial activity."}},
  "note": "Like-named read-outs stand apart in the source and are kept apart here.",
  "data": [
    {"compound": "c1ccc(CN(Cc2ccccn2)Cc2ccccn2)nc1", "note": "[L6, Tris(2-pyridylmethyl)amine]", "values": [
      {"measurement": "antimalarial activity (LDH assay, FIG. 2)", "setting": "[1]; 10 nM to 10 μM, result in words", "result": "remarkable antimalarial activity"},
      {"measurement": "antimalarial activity of L6 together with added metal ion", "setting": "[1]; L6 about 40 nM with excess zinc ion (about 10 μM)", "result": "suppression of the antimalarial activity was found to some extent"},
      {"measurement": "IC50", "setting": "[1]; 3D7, 3D7 strain, values in text, read-out: IC50 value for the antimalarial activity based on the LDH assay", "result": "~31", "unit": "nM"},
      {"measurement": "IC50", "setting": "[1]; 3D7, read-out: IC50 antimalarial activity, 3D7", "result": 84, "unit": "nM"},
      {"measurement": "IC50", "setting": "[2]; read-out: IC50 antimalarial activity against the K1 strain", "result": "80 to 160", "unit": "nM"},
      {"measurement": "IC50", "setting": "[2]; read-out: IC50 antimalarial activity, K1", "result": 82, "unit": "nM"},
      {"measurement": "IC50", "setting": "[3]; DD2, read-out: IC50 antimalarial activity against the Dd2 strain", "result": "80 to 160", "unit": "nM"},
      {"measurement": "IC50", "setting": "[3]; DD2, read-out: IC50 antimalarial activity, Dd2", "result": 144, "unit": "nM"},
      {"measurement": "antimalarial activity against a chloroquine-resistant strain", "setting": "[4]", "result": "exhibit antimalarial activity also against a chloroquine-resistant strain"},
      {"measurement": "IC50 at 48 h", "setting": "[5]; 1st measurement", "result": 5080, "unit": "nM"},
      {"measurement": "IC50 at 48 h", "setting": "[5]; 2nd measurement", "result": 5310, "unit": "nM"},
      {"measurement": "IC50 at 48 h", "setting": "[6]; HeLa, 48 hours, 1st measurement (Table 1), read-out: IC50 value, cytotoxicity", "result": 5610, "unit": "nM"},
      {"measurement": "IC50 at 48 h", "setting": "[6]; HeLa, 48 hours, 2nd measurement (Table 1), read-out: IC50 value, cytotoxicity", "result": 5160, "unit": "nM"},
      {"measurement": "IC50 at 48 h", "setting": "[6]; Table 3, 48 hours, WST-8, read-out: IC50 cytotoxicity, HeLa", "result": 5800, "unit": "nM"},
      {"measurement": "IC50 at 48 h", "setting": "[7]; 1st measurement", "result": 1800, "unit": "nM"},
      {"measurement": "IC50 at 48 h", "setting": "[7]; 2nd measurement", "result": 1950, "unit": "nM"},
      {"measurement": "IC50 at 48 h", "setting": "[8]; 1st measurement", "result": 1880, "unit": "nM"},
      {"measurement": "IC50 at 48 h", "setting": "[8]; 2nd measurement", "result": 1900, "unit": "nM"},
      {"measurement": "IC50 at 48 h", "setting": "[9]; 1st measurement", "result": 2420, "unit": "nM"},
      {"measurement": "IC50 at 48 h", "setting": "[9]; 2nd measurement", "result": 3870, "unit": "nM"},
      {"measurement": "IC50 at 48 h", "setting": "[10]", "result": 1800, "unit": "nM"},
      {"measurement": "IC50 at 48 h", "setting": "[11]", "result": 5700, "unit": "nM"},
      {"measurement": "IC50 at 48 h", "setting": "[12]", "result": 6000, "unit": "nM"},
      {"measurement": "IC50", "setting": "[13]", "result": "5080 to 5610", "unit": "nM"},
      {"measurement": "rate of malaria-infected erythrocytes (infection rate)", "setting": "[14]", "result": "infection rate could be remarkably suppressed"},
      {"measurement": "life-prolonging effect (number of surviving individuals)", "setting": "[15]", "result": "remarkable life-prolonging effect"},
      {"measurement": "toxicity in vivo", "setting": "[16]", "result": "influence of toxicity appears"}
    ]}
  ]
}
